According to PMC10578352, “Identification of a Protein Arginine Methyltransferase 7 (PRMT7)/Protein Arginine Methyltransferase 9 (PRMT9) Inhibitor” (Journal of Medicinal Chemistry, 2023):
“Also recorded” adds a separate entry of the source.

What was measured:
Type in all cases: biochemical
human recombinant PRMT9 = target: T1, human recombinant PRMT9 (Homo sapiens, UniProt Q6P2P2); assay: AlphaLISA PRMT9 activity assay (modified BPS kit, biotinylated SF3B2 peptide); conditions: for PRMT9 IC50 / IC50: PRMT9 0.105 μM, biotinylated SF3B2 (500–519) peptide 100 nM, SAM 25 μM; for PRMT9 inhibition (in words): in-house AlphaLISA assay
T1 construct: human recombinant PRMT9 (2–845; N-terminal FLAG-tag, C-terminal His6-tag); FLAG (N); His6 (C); purchased BPS BioScience 79124
T1 sequence (Q6P2P2 2-845): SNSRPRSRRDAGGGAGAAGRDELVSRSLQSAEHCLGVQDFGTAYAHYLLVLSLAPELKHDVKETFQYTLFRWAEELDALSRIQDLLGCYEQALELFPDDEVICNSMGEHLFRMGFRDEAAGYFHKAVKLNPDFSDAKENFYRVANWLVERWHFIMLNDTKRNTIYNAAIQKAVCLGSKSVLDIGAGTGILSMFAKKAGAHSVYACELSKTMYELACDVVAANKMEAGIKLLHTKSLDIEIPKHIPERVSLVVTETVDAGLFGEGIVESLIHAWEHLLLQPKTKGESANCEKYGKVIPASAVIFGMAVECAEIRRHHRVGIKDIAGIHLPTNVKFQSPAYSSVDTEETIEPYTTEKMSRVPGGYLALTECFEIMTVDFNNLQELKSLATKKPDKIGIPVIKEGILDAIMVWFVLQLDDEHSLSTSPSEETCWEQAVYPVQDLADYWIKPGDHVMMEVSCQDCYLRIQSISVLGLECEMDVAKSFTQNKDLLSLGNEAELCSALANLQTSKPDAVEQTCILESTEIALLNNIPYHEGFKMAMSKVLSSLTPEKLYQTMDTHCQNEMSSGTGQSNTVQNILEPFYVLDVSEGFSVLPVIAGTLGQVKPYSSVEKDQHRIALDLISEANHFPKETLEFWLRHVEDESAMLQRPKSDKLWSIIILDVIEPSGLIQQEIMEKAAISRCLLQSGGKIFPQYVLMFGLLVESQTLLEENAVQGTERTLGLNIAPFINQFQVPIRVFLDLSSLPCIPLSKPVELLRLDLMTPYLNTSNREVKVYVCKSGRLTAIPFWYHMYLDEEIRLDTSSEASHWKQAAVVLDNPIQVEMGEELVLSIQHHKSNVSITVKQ
Experimental: Accordingly, all the enzymatic inhibition data were obtained by performing the assays in these optimized conditions.
The reaction was incubated for 60 min. Afterward, in each well, 5 μL of a 1:100 dilution of Primary antibody 28 (BPS BioScience, #52140Z3) in Detection buffer (BPS BioScience) and 5 μL of anti-Rabbit acceptor beads (PerkinElmer, #AL104C) were added to obtain a final concentration of 20 μg/mL.
For each incubation step, the OptiPlate was sealed with a protective foil to prevent evaporation and contamination. Donor and Acceptor beads were added to the mixture in subdued light.
The 100% activity (positive control) was reached using vehicle (DMSO), while 0% activity (negative control) was obtained without the protein. Data were analyzed by using Excel and Prism software. Values obtained for each compound are mean ± SD determined for three separate experiments.

PRMT1 = target: T2, PRMT1 (Homo sapiens, UniProt Q99873); assay: HotSpot radioisotope-based filter assay, PRMT1; conditions: Figure 2; from IC50 values of ref 31
T2 construct: PRMT1 (residues 2–371, C-terminus); with an N-terminal GST-tag; GST (N); purchased Reaction Biology Corporation
T2 sequence (Q99873 2-371): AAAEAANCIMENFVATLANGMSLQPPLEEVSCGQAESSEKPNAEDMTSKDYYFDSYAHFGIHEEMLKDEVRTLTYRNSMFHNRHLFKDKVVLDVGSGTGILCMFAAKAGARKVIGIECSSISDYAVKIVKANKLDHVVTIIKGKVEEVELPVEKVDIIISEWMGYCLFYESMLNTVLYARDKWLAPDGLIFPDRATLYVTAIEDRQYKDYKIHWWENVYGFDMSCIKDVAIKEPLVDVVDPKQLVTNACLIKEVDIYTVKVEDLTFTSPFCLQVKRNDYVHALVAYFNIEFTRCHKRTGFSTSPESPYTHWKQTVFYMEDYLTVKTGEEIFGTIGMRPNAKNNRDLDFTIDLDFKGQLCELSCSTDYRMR
Experimental: (§1) Then, ^3H-SAM (final concentration of 1 μM) was delivered into the reaction mixture to initiate the reaction. After incubation for 60 min at 30 °C, the reaction mixture was delivered to filter-paper for detection (as assessed by scintillation). Data were analyzed using Excel and GraphPad Prism 6.0 software (GraphPad Software Inc., San Diego, CA) for IC50 curve fits using sigmoidal dose vs response - variable slope (four parameters) equations.

PRMT3 = target: T3, PRMT3 (Homo sapiens, UniProt O60678); assay: HotSpot radioisotope-based filter assay, PRMT3; conditions: Figure 2; from IC50 values of ref 31
T3 construct: PRMT3 (residues 2–531, C-terminus); with an N-terminal His-tag; His (N); purchased Reaction Biology Corporation
T3 sequence (O60678 2-531): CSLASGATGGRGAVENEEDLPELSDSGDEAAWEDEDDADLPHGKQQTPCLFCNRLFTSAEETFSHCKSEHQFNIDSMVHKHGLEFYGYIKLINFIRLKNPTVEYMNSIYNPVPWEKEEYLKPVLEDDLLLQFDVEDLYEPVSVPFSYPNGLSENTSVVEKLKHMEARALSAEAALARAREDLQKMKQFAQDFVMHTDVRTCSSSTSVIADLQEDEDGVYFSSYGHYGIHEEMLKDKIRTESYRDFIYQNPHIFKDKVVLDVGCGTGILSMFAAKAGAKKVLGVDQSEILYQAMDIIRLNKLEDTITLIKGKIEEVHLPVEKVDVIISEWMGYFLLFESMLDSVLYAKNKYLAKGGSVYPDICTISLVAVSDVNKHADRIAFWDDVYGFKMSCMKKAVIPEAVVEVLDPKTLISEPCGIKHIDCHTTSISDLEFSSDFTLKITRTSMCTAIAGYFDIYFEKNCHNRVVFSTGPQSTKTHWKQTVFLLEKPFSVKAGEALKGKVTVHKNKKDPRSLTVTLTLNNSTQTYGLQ
Experimental: as §1

PRMT4 = target: T4, PRMT4 (Homo sapiens, UniProt Q86X55); assay: HotSpot radioisotope-based filter assay, PRMT4; conditions: Figure 2; from IC50 values of ref 31
T4 construct: PRMT4 (residues 2–608, C-terminus); with an N-terminal GST-tag; GST (N); purchased Reaction Biology Corporation
T4 sequence (Q86X55 2-608): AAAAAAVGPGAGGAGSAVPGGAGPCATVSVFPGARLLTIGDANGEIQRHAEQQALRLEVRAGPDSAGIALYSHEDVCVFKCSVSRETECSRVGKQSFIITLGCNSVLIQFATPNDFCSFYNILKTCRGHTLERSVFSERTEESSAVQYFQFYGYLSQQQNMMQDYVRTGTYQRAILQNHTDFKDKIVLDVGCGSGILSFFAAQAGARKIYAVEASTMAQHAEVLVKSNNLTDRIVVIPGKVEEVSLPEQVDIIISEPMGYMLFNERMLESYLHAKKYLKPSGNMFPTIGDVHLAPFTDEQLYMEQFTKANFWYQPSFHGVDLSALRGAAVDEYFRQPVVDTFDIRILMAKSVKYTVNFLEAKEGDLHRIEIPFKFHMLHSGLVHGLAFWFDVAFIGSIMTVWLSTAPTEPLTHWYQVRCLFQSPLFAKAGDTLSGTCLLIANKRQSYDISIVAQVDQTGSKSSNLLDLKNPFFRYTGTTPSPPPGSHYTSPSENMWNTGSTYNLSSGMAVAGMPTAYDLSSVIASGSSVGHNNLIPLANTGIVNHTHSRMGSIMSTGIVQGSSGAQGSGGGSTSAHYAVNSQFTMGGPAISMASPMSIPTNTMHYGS
Experimental: as §1

PRMT5/MEP50 complex = target: T5, PRMT5/MEP50 complex (Homo sapiens, UniProt O14744); assay: HotSpot radioisotope-based filter assay, PRMT5; conditions: Figure 2; from IC50 values of ref 31
T5 construct: residues PRMT5 2–637, C-terminus, and MEP50 2–342, C-terminus; FLAG (N); purchased Reaction Biology Corporation
T5 sequence (O14744 2-637): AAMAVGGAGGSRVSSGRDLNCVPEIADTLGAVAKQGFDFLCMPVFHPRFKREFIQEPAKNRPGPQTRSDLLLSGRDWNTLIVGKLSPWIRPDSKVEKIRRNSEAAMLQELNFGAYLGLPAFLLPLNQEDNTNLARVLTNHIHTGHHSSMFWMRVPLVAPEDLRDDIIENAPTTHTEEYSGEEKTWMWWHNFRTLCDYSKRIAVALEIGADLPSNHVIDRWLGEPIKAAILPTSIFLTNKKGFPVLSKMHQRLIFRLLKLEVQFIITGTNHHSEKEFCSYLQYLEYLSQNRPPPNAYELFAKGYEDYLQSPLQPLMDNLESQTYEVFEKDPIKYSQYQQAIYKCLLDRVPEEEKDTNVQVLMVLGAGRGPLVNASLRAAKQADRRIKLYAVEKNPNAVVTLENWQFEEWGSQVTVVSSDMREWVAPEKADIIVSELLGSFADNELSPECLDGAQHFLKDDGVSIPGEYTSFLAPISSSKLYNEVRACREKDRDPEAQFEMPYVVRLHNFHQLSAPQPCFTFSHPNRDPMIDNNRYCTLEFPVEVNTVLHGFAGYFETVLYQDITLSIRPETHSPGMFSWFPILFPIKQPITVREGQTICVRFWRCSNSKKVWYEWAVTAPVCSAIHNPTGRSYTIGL
T5 sequence (Q9BQA1 2-342 partner limits assumed): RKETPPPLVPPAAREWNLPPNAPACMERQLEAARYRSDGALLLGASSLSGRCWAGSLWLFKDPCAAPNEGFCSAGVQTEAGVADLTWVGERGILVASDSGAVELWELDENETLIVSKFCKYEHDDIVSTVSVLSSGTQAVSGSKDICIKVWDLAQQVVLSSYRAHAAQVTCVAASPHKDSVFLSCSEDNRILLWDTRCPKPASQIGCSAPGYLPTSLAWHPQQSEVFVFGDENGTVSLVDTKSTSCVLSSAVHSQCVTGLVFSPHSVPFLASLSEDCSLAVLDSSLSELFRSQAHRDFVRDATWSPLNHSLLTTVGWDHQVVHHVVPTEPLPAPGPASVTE
Experimental: as §1

PRMT6 = target: T6, PRMT6 (Homo sapiens, UniProt Q96LA8); assay: HotSpot radioisotope-based filter assay, PRMT6; conditions: Figure 2; from IC50 values of ref 31
T6 construct: PRMT6 (residues 2–375, C-terminus); with an N-terminal GST-tag; GST (N); purchased Reaction Biology Corporation
T6 sequence (Q96LA8 2-375): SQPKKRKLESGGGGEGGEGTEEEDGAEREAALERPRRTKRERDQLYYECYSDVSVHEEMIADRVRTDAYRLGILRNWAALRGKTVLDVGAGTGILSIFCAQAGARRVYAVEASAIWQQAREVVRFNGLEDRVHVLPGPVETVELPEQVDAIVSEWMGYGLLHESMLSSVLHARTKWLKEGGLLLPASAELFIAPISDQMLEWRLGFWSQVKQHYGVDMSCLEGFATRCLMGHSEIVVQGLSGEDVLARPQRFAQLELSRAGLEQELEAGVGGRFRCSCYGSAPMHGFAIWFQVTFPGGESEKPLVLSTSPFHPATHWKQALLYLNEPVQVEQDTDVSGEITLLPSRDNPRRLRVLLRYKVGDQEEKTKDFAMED
Experimental: as §1

PRMT8 = target: T7, PRMT8 (Homo sapiens, UniProt Q9NR22); assay: HotSpot radioisotope-based filter assay, PRMT8; conditions: Figure 2; from IC50 values of ref 31
T7 construct: (residues 61–394, C-terminus); with C- and N-terminal His-tags; His (N); His (C); purchased Reaction Biology Corporation
T7 sequence (Q9NR22 61-394): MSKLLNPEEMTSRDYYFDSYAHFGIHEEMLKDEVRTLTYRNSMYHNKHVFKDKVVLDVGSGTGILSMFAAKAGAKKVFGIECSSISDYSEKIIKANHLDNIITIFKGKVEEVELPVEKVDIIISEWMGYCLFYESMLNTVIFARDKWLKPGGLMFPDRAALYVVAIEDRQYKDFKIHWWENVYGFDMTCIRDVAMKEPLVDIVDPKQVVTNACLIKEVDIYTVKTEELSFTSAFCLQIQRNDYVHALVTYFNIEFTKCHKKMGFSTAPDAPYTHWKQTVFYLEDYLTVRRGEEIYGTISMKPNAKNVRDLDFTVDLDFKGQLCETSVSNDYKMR
Experimental: as §1

| SMILES | PRMT9 IC50 (human recombinant PRMT9) | PRMT9 inhibition (in words) (human recombinant PRMT9) | IC50 (human recombinant PRMT9) [nM] | selectivity index for PRMT7 over PRMT1 (PRMT1) [fold] | selectivity index for PRMT7 over PRMT3 (PRMT3) [fold] | selectivity index for PRMT7 over PRMT4 (PRMT4) [fold] | selectivity index for PRMT7 over PRMT5 (PRMT5/MEP50 complex) [fold] | selectivity index for PRMT7 over PRMT6 (PRMT6) [fold] | selectivity index for PRMT7 over PRMT8 (PRMT8) [fold] |
| --- | --- | --- | --- | --- | --- | --- | --- | --- | --- |
| O=C(Nc1ccc2cc(C(=O)O)cc(O)c2c1)Nc1ccc2cc(C(=O)O)cc(O)c2c1 [EML108] | no inhibition | no PRMT9 inhibition; also recorded: no activity | – | – | – | – | – | – | – |
| O=C(Nc1ccc2[nH]cc(C(=O)O)c2c1)Nc1ccc2[nH]cc(C(=O)O)c2c1 [EML145] | no inhibition | no PRMT9 inhibition; also recorded: no activity | – | – | – | – | – | – | – |
| COC(=O)c1cc(O)c2cc(NC(=O)NCCCCCCNC(=N)NC[C@H]3O[C@@H](n4cnc5c(N)ncnc54)[C@H](O)[C@@H]3O)ccc2c1 [1d] | – | – | 1020 | – | – | – | – | – | – |
| COC(=O)c1cc(O)c2cc(NC(=O)NCCCCNC(=N)NCC[C@H]3O[C@@H](n4cnc5c(N)ncnc54)[C@H](O)[C@@H]3O)ccc2c1 [1f] | – | – | 1200 | 22 | 46 | 0.04 | 0.51 | 100 | 27 |
| O=C(CC(=O)Nc1ccc2[nH]cc(C(=O)O)c2c1)Nc1ccc2[nH]cc(C(=O)O)c2c1 [EML148] | no inhibition | no PRMT9 inhibition; also recorded: no activity | – | – | – | – | – | – | – |
| COC(=O)c1c[nH]c2ccc(NC(=O)CC(=O)Nc3ccc4[nH]cc(C(=O)OC)c4c3)cc12 [EML147] | no inhibition | no PRMT9 inhibition; also recorded: no activity | – | – | – | – | – | – | – |
| COC(=O)c1cc(O)c2cc(NC(=O)NCCCCCCCNC(=N)NC[C@H]3O[C@@H](n4cnc5c(N)ncnc54)[C@H](O)[C@@H]3O)ccc2c1 [1e] | – | – | 1300 | 4 | 20 | 0.28 | 5 | 56 | 9 |
| CCOC(=O)c1cc2cc(NC(=O)CNC(=O)Nc3ccc([N+](=O)[O-])cc3)ccc2[nH]1 [EML105] | no inhibition | no PRMT9 inhibition; also recorded: no activity | – | – | – | – | – | – | – |
| COC(=O)c1cc(O)c2cc(NC(=O)Nc3ccc4cc(C(=O)OC)cc(O)c4c3)ccc2c1 [EML107] | no inhibition | no PRMT9 inhibition; also recorded: no activity | – | – | – | – | – | – | – |
| COC(=O)c1cc(O)c2cc(NC(=O)NCCCCNC(=N)NCCC[C@H]3O[C@@H](n4cnc5c(N)ncnc54)[C@H](O)[C@@H]3O)ccc2c1 [1g] | – | – | > 10000 | 0.38 | 3 | 0.002 | 0.17 | 0.93 | 0.3 |
